# The source made the active and inactive calls. The rule behind the calls is not given here.
# Experiments:
# [1] = system: PANC-1; assay: Cytotoxicity against human PANC-1 cells assessed as inhibition of cell growth incubated for 72 hrs by SRB assay; format: functional, cell-based; details: PANC-1, 72 h
# [2] = system: PANC-1; assay: Induction of apoptosis in human PANC-1 cells assessed as viable cells at 5 uM incubated for 24 hrs by annexinV-FITC and PI staining based flow cytometry analysis (reference value: 89.5 %); format: functional; details: read-out: Activity
# [3] = system: PANC-1; assay: Induction of apoptosis in human PANC-1 cells assessed as viable cells at 2.50 uM incubated for 24 hrs by annexinV-FITC and PI staining based flow cytometry analysis (reference value: 89.5 %); format: functional; details: read-out: Activity
# [4] = system: PANC-1; assay: Induction of apoptosis in human PANC-1 cells assessed as viable cells at 1.25 uM incubated for 24 hrs by annexinV-FITC and PI staining based flow cytometry analysis (reference value: 89.5 %); format: functional; details: read-out: Activity
# [5] = system: PANC-1; assay: Antiinvasive activity in human PANC-1 cells assessed as decrease in cell invasion at 0.94 to 3.75 uM incubated for 24 hrs by crystal violet staining based transwell assay; format: functional; details: dose 0.94-3.75 µM
# [6] = system: ASPC1; assay: Upregulation of PARP expression in human ASPC1 cells incubated for 24 hrs in presence of gemcitabine by Western blot analysis; format: functional, cell-based
# [7] = system: ASPC1; assay: Cytotoxicity against human ASPC1 cells assessed as inhibition of cell growth incubated for 72 hrs by SRB assay; format: functional, cell-based; details: ASPC1, 72 h
# [8] = system: MDA-MB-231; assay: Cytotoxicity against human MDA-MB-231 cells assessed as inhibition of cell growth incubated for 72 hrs by SRB assay; format: functional, cell-based; details: MDA-MB-231, 72 h
# [9] = system: BXPC-3; assay: Cytotoxicity against human BXPC-3 cells assessed as inhibition of cell growth incubated for 72 hrs by SRB assay; format: functional, cell-based; details: BXPC-3, 72 h
# [10] = system: ASPC1; assay: Cytotoxicity against human ASPC1 cells assessed as inhibition of cell proliferation at 0.94 to 30 uM by SRB assay; format: functional, cell-based; details: dose 0.94-30 µM, time 24-72 hrs, TDE = time-dependent effect
# [11] = system: PANC-1; assay: Cytotoxicity against human PANC-1 cells assessed as inhibition of cell proliferation at 0.94 to 30 uM by SRB assay; format: functional, cell-based; details: dose 0.94-30 µM, time 24-72 hrs, TDE = time-dependent effect
# [12] = target: Epidermal growth factor receptor (Homo sapiens) (UniProt P00533); assay: Inhibition of EGFR downstream signalling in human ASPC1 cells assessed as reduction of STAT3 phosphorylation upto 5 uM incubated for 24 hrs by Western blot analysis; format: cell-based
# [13] = target: Epidermal growth factor receptor (Homo sapiens) (UniProt P00533); assay: Inhibition of EGFR downstream signalling in human ASPC1 cells assessed as reduction of Akt phosphorylation upto 5 uM incubated for 24 hrs by Western blot analysis; format: cell-based
# [14] = target: Epidermal growth factor receptor (Homo sapiens) (UniProt P00533); assay: Inhibition of EGFR downstream signalling in human PANC-1 cells assessed as reduction of STAT3 phosphorylation upto 5 uM incubated for 24 hrs by Western blot analysis; format: cell-based
# [15] = target: Epidermal growth factor receptor (Homo sapiens) (UniProt P00533); assay: Inhibition of EGFR downstream signalling in human PANC-1 cells assessed as reduction of Akt phosphorylation upto 5 uM incubated for 24 hrs by Western blot analysis; format: cell-based
# [16] = system: ASPC1; assay: Induction of apoptosis in human ASPC1 cells assessed as viable cells at 1.25 uM incubated for 24 hrs by annexinV-FITC and PI staining based flow cytometry analysis (reference value: 96.0 %); format: functional; details: read-out: Activity
# [17] = system: ASPC1; assay: Induction of apoptosis in human ASPC1 cells assessed as viable cells at 2.50 uM incubated for 24 hrs by annexinV-FITC and PI staining based flow cytometry analysis (reference value: 96.0 %); format: functional; details: read-out: Activity
# [18] = system: ASPC1; assay: Induction of apoptosis in human ASPC1 cells assessed as viable cells at 5 uM incubated for 24 hrs by annexinV-FITC and PI staining based flow cytometry analysis (reference value: 96.0 %); format: functional; details: read-out: Activity
# [19] = system: ASPC1; assay: Induction of apoptosis in human ASPC1 cells assessed as early apoptotic cells at 1.25 uM incubated for 24 hrs by annexinV-FITC and PI staining based flow cytometry analysis (reference value: 1.56 %); format: functional
# [20] = system: ASPC1; assay: Induction of apoptosis in human ASPC1 cells assessed as early apoptotic cells at 2.50 uM incubated for 24 hrs by annexinV-FITC and PI staining based flow cytometry analysis (reference value: 1.56 %); format: functional; details: dose 2.5 µM
# [21] = system: ASPC1; assay: Induction of apoptosis in human ASPC1 cells assessed as early apoptotic cells at 5 uM incubated for 24 hrs by annexinV-FITC and PI staining based flow cytometry analysis (reference value: 1.56 %); format: functional
# [22] = system: ASPC1; assay: Induction of apoptosis in human ASPC1 cells assessed as late apoptotic cells at 1.25 uM incubated for 24 hrs by annexinV-FITC and PI staining based flow cytometry analysis (reference value: 2.18 %); format: functional
# [23] = system: ASPC1; assay: Induction of apoptosis in human ASPC1 cells assessed as late apoptotic cells at 2.50 uM incubated for 24 hrs by annexinV-FITC and PI staining based flow cytometry analysis (reference value: 2.18 %); format: functional; details: dose 2.5 µM
# [24] = system: ASPC1; assay: Induction of apoptosis in human ASPC1 cells assessed as late apoptotic cells at 5 uM incubated for 24 hrs by annexinV-FITC and PI staining based flow cytometry analysis (reference value: 2.18 %); format: functional
# [25] = system: ASPC1; assay: Induction of apoptosis in human ASPC1 cells assessed as necrotic cells at 1.25 uM incubated for 24 hrs by annexinV-FITC and PI staining based flow cytometry analysis (reference value: 0.27 %); format: functional
# [26] = system: ASPC1; assay: Induction of apoptosis in human ASPC1 cells assessed as necrotic cells at 2.50 uM incubated for 24 hrs by annexinV-FITC and PI staining based flow cytometry analysis (reference value: 0.27 %); format: functional; details: dose 2.5 µM
# [27] = system: ASPC1; assay: Induction of apoptosis in human ASPC1 cells assessed as necrotic cells at 5 uM incubated for 24 hrs by annexinV-FITC and PI staining based flow cytometry analysis (reference value: 0.27 %); format: functional
# [28] = system: PANC-1; assay: Induction of apoptosis in human PANC-1 cells assessed as early apototic cells at 1.25 uM incubated for 24 hrs by annexinV-FITC and PI staining based flow cytometry analysis (reference value: 4.66 %); format: functional
# [29] = system: PANC-1; assay: Induction of apoptosis in human PANC-1 cells assessed as early apototic cells at 2.50 uM incubated for 24 hrs by annexinV-FITC and PI staining based flow cytometry analysis (reference value: 4.66 %); format: functional; details: dose 2.5 µM
# [30] = system: PANC-1; assay: Induction of apoptosis in human PANC-1 cells assessed as early apototic cells at 5 uM incubated for 24 hrs by annexinV-FITC and PI staining based flow cytometry analysis (reference value: 4.66 %); format: functional
# [31] = system: PANC-1; assay: Induction of apoptosis in human PANC-1 cells assessed as late apototic cells at 1.25 uM incubated for 24 hrs by annexinV-FITC and PI staining based flow cytometry analysis (reference value: 5.71 %); format: functional
# Chain of Epidermal growth factor receptor (Homo sapiens) (P00533 whole entry): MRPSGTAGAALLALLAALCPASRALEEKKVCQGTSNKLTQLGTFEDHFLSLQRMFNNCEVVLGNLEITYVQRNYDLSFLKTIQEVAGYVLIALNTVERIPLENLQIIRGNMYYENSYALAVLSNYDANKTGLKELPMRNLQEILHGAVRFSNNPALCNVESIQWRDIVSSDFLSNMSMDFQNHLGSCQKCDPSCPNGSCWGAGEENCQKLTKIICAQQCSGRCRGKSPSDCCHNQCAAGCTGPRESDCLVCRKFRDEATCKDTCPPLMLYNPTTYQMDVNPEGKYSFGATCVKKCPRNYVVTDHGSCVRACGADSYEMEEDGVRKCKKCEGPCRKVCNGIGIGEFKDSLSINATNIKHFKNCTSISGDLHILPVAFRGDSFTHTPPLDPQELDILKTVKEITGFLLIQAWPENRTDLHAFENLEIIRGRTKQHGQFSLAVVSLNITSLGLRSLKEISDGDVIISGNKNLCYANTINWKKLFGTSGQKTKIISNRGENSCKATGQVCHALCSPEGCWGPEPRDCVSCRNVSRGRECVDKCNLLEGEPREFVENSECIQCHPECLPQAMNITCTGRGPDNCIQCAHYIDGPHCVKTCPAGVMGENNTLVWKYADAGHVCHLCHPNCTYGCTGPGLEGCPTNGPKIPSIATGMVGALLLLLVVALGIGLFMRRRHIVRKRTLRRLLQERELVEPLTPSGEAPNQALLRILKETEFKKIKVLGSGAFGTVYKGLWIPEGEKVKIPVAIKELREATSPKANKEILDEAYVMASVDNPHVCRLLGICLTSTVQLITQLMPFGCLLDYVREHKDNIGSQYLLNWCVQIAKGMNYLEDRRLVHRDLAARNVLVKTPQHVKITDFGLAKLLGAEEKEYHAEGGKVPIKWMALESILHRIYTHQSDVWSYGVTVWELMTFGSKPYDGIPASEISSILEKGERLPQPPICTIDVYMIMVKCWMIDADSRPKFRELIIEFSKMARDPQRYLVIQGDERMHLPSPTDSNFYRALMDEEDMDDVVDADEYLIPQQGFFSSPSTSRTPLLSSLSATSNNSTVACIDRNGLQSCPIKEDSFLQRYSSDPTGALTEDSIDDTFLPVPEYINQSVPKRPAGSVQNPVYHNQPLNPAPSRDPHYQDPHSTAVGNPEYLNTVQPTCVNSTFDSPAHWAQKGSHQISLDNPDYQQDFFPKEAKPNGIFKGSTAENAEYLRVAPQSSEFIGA
structure (smiles),measurement,setting,value
COC(=O)CCCCCCC/C=C/C(=O)OC[C@@]1(C)CCC[C@@]2(C)[C@H]1[C@H](OC(=O)c1ccc([N+](=O)[O-])cc1)C=C1C(=O)OC[C@@]12O,IC50,[1],4.2 µM
same,viability at 5 µM,[2],69.6%
same,viability at 2.5 µM,[3],80.6%
same,viability at 1.25 µM,[4],90.7%
same,Activity,[5],Active
same,Activity,[6],Active
same,IC50,[7],2.3 µM
same,IC50,[8],22.9 µM
same,IC50,[9],4.88 µM
same,Activity,[10],Tde
same,Activity,[11],Tde
same,inhibition,[12],Active
same,inhibition,[13],Active
same,inhibition,[14],Active
same,inhibition,[15],Active
same,viability at 1.25 µM,[16],90.1%
same,viability at 2.5 µM,[17],87.7%
same,viability at 5 µM,[18],85.1%
same,Activity,[19],5.77%
same,Activity,[20],7.03%
same,Activity,[21],2.98%
same,Activity,[22],3.96%
same,Activity,[23],4.92%
same,Activity,[24],10.1%
same,Activity,[25],0.2%
same,Activity,[26],0.38%
same,Activity,[27],1.79%
same,Activity,[28],5.99%
same,Activity,[29],5.58%
same,Activity,[30],7.12%
same,Activity,[31],3.09%
